In patent publication US7935825B2, “Arylsulfanyl and heteroarylsulfanyl derivatives for treating pain” (Allergan, Inc., priority 2001, dated 2011):
Like-named read-outs stand apart in the source and are kept apart here.

Key:
tactile allodynia = assay: Chronic pain model: spinal nerve (L5/L6) ligation, tactile allodynia measured with von Frey hairs; assay type: in vivo; conditions: rats
Text: A model for chronic pain (in particular peripheral neuropathy such as causalgia) involves the surgical ligation of the L5 (and optionally the L6) spinal nerves on one side in experimental animals. Rats recovering from the surgery gain weight and display a level of general activity similar to that of normal rats. However, these rats develop abnormalities of the foot, wherein the hindpaw is moderately everted and the toes are held together. More importantly, the hindpaw on the side affected by the surgery appears to become sensitive to pain from low-threshold mechanical stimuli, such as that producing a faint sensation of touch in a human, within about 1 week following surgery. This sensitivity to normally non-painful touch is called “tactile allodynia” and lasts for at least two months. The response includes lifting the affected hindpaw to escape from the stimulus, licking the paw and holding it in the air for many seconds. None of these responses is normally seen in the control group.
Rats are anesthetized before surgery. The surgical site is shaved and prepared either with betadine or Novacaine. Incision is made from the thoracic vertebra Xlll down toward the sacrum. Muscle tissue is separated from the spinal vertebra (left side) at the L4-S2 levels. The L6 vertebra is located and the transverse process is carefully removed with a small rongeur to expose the L4-L6 spinal nerves. The L5 and L6 spinal nerves are isolated and tightly ligated with 6-0 silk thread. The same procedure is done on the right side as a control, except no ligation of the spinal nerves is performed.
A complete hemostasis is confirmed, then the wounds are sutured. A small amount of antibiotic ointment is applied to the incised area, and the rat is transferred to the recovery plastic cage under a regulated heat-temperature lamp. On the day of the experiment, at least seven days after the surgery, six rats per test group are administered the test drugs by intraperitoneal (i.p.) injection or oral gavage. For i.p. injection, the compounds are formulated in approximately 50% DMSO and given in a volume of 1 ml/kg body weight. The compound of Example 7 was tested at doses ranging between 30 and 3000 ng/kg. A volume equal to 1 ml/kg body weight of an appropriate concentration (i.e.. 1 mg/ml for a 1 mg/kg dose) of the compound of Example 7 formulated in approximately 50% DMSO was injected using an 18-gauge, 3-inch gavage needle that is slowly inserted through the esophagus into the stomach.
Tactile allodynia is measured prior to and 30 minutes after drug administration using von Frey hairs that are a series of fine hairs with incremental differences in stiffness. Rats are placed in a plastic cage with a wire mesh bottom and allowed to acclimate for approximately 30 minutes. The von Frey hairs are applied perpendicularly through the mesh to the mid-plantar region of the rats' hindpaw with sufficient force to cause slight buckling and held for 6-8 seconds. The applied force has been calculated to range from 0.41 to 15.1 grams. If the paw is sharply withdrawn, it is considered a positive response. A normal animal will not respond to stimuli in this range, but a surgically ligated paw will be withdrawn in response to a 1-2 gram hair. The 50% paw withdrawal threshold is determined using the method of Dixon, W. J., Ann. Rev. Pharmacol. Toxicol. 20:441-462 (1980). The post-drug threshold is compared to the pre-drug threshold and the percent reversal of tactile sensitivity is calculated based on a normal threshold of 15.1 grams. […] Compared to a saline solution, this compound reversed the allodynic pain by 25% at an i.p. dose of 100 ng/kg, 60% at 300 ng/kg, 90% at […] and 92% at 3000 ng/kg.

receptors for PGE2 = conditions: cited from earlier work
[1] = i.p. dose of 100 ng/kg, 30 minutes after drug administration
[2] = i.p. dose of 300 ng/kg, 30 minutes after drug administration

Row | Structure (SMILES) | reversal of allodynic pain (percent reversal of tactile sensitivity) (tactile allodynia; i.p. dose of 30 ng/kg, 30 minutes after drug administration) [%] | reversal of allodynic pain (percent reversal of tactile sensitivity) (tactile allodynia; [1]) [%] | reversal of allodynic pain (percent reversal of tactile sensitivity) (tactile allodynia; [2]) [%] | reversal of allodynic pain (percent reversal of tactile sensitivity) (tactile allodynia; i.p., dose figure not printed ("at ng/kg")) [%] | response to the tactile stimuli that indicate tactile allodynia (tactile allodynia; doses between 30 and 3000 ng/kg) | reversal of allodynic pain (percent reversal of tactile sensitivity) (tactile allodynia; i.p. dose of 3000 ng/kg, 30 minutes after drug administration) [%] | reversal of allodynic pain (percent reversal of tactile sensitivity) (tactile allodynia; i.p. dose printed as 100 mg/kg, 30 minutes after drug administration) [%] | effect on PGE2 action in tissue (receptors for PGE2; cat trachea or chick ileum) | effect on PGE2 action in tissue (receptors for PGE2; guinea pig ileum or dog fundus)
1 | CCN(Cc1cc(Br)ccc1OCc1ccccc1)c1ccc(C(=O)O)cn1 [6-[(2-Benzyloxy-5-bromobenzyl)ethylamino]nicotinic acid] | 10 | 50 | 55 | 60 | – | – | – | – | –
2 | CCN(Cc1ccccc1SCc1ccccc1)c1ccc(C(=O)O)cn1 [Example 7, 6-[(2-Benzylsulfanylbenzyl)ethylamino]nicotinic acid] | – | 25 | 60 | – | able to reduce the response to the tactile stimuli | 92 | 90 | – | –
3 | CC(=O)NNC(=O)N1Cc2ccccc2Oc2ccc(Cl)cc21 [SC-19220] | – | – | – | – | – | – | – | not on other tissues | blocks the effect of PGE2
